Source: PMC10014103, “The immunometabolite itaconate stimulates OXGR1 to promote mucociliary clearance during the pulmonary innate immune response” (The Journal of Clinical Investigation, 2023)

What was measured:
mouse OXGR1 = biological target: T1, mouse OXGR1 (Mus musculus, UniProt Q6IYF8); assay: Aequorin assay (calcium mobilization) in HEK293 cells overexpressing mouse OXGR1; format: cell-based; details: EC50, aequorin assay, mOXGR1 in HEK293 cells
T1 construct: expressed in transfected cells; host or cells: HEK293
Procedure: (§1) Thirty-six hours after transfection, cells were maintained in serum-free medium for 12 hours and then loaded with 5 μM coelenterazine for 3 hours. Cells were trypsinized and resuspended at a density of 5 × 10^5 cells/mL in HBSS supplemented with 10 mM HEPES and 0.5% BSA. Cell suspensions of 100 μL were aliquoted into 96-well plates.

human OXGR1 [1] = biological target: T2, human OXGR1 (Homo sapiens, UniProt Q96P68); assay: Fluo-4 assay in HEK293 cells expressing human OXGR1; format: cell-based
Procedure: For the Fluo-4AM assay, OXGR1-expressing cells were loaded with 2 μM Fluo-4AM for 30 minutes at 37°C. Excess Fluo-4AM was then washed off with HBSS buffer. After incubation at 37°C for another 10 minutes, cells were transferred onto a 96-well plate.

human OXGR1 [2] = biological target: T2, human OXGR1; assay: Aequorin assay (calcium mobilization) in HEK293 cells overexpressing human OXGR1; format: cell-based
Procedure: as §1

FLAG-tagged OXGR1 = biological target: T3, FLAG-tagged OXGR1 (Homo sapiens, UniProt Q96P68); assay: Endocytosis assay of FLAG-tagged OXGR1 in HEK293 cells; format: cell-based; details: WT OXGR1, within 10 minutes of ligand treatment
T3 construct: expressed in transfected cells
Procedure: For endocytosis assays, HEK293 cells stably expressing FLAG-OXGR1 were chilled on ice in DMEM medium supplemented with 30 mM HEPES for 10 minutes. […] Unbound antibody was then washed off with prechilled HBSS buffer. […] After ligand stimulation, cells were fixed and permeabilized. Subcellular localization of FLAG-tagged OXGR1 was detected using FITC-donkey anti-rabbit antibody (Invitrogen, Thermo Fisher Scientific), and nuclei were stained with DAPI (MilliporeSigma). Immunofluorescence images were captured with a Leica SP8 laser-scanning confocal microscope.

mouse trachea = assay: Ex vivo trachea culture, cilia beating-derived fluorescent bead movement; details: 500 μM ITA or 100 μM ATP
Procedure: Tracheas were harvested from mice and cut longitudinally through the middle of the trachealis muscle to expose the lumen of the trachea. Tracheas were then transferred into HBSS buffer and equilibrated for 30 minutes. With the lumen facing down, trachea tissues were transferred into 2 mL HBSS buffer supplemented with 0.5% methylcellulose, red fluorescent beads, 30 mM HEPES, and the indicated ligand. Bead flow was monitored with the BioTek Cytation 5 cell imaging system. Twenty individual beads were tracked from different fields of view in each condition, and the speed of each bead was calculated by […].

[3] = system: primary respiratory epithelial cells from Oxgr1+/+ and Oxgr1–/– mice; assay: Calcium imaging (Fluo-4AM) of primary mouse trachea epithelial cells; format: cell-based; details: 670 μM ITA or 100 μM ATP
Procedure: For calcium imaging of human primary bronchial epithelial cells, cells were infected with 2 CRISPR lentiviruses targeting OXGR1 and cultured for 2 days before calcium imaging. For calcium imaging of primary mouse cells, freshly isolated mouse tracheas were cut into rings, placed onto collagen-coated dishes, and cultured in DMEM supplemented with 10% FBS. Cells were loaded with 5 μM Fluo-4AM for 30 minutes in HBSS buffer, washed twice, and incubated for another 15 minutes for fully deesterification of Fluo-4AM. Cells loaded with Fluo-4AM were monitored with the BioTek Cytation 5 Cell imaging system every 300 ms for a total of 1.5 minutes after ligand administration. Fluorescence was quantified with ImageJ software (NIH).

T1 sequence (Q6IYF8 whole entry): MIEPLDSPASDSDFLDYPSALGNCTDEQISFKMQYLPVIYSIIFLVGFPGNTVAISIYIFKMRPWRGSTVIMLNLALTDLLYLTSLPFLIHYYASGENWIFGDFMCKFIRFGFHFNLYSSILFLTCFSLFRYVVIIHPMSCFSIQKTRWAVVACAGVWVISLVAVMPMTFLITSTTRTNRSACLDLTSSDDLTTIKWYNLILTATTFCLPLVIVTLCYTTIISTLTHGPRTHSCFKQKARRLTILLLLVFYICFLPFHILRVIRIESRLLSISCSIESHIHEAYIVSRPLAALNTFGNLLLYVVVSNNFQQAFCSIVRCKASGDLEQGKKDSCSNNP

SMILES | EC50 (mouse OXGR1) [µM] | EC50 (human OXGR1 [1]) [µM] | EC50 (human OXGR1 [2]) [µM] | endocytosis of OXGR1 (FLAG-tagged OXGR1) | calcium response (agonist effect) (human OXGR1 [2]; HEK293 cells overexpressing human OXGR1, aequorin) | effect on α-KG– or ITA-triggered intracellular Ca2+ release (human OXGR1 [2]; addition of LTE4, OXGR1-expressing HEK293 cells) | movement of beads, trachea from Oxgr1+/+ mice (mouse trachea) | movement of beads, trachea from Oxgr1–/– mice (mouse trachea) | calcium mobilization, Oxgr1+/+ cells [3] | calcium mobilization, Oxgr1–/– cells [3]
O=C(O)CCC(=O)C(=O)O [α-KG, α-ketoglutaric acid, reference compound] | 241 ± 61.1 | 161 ± 34.7 | 248 ± 58.6 | rapid endocytosis of OXGR1 was triggered |  |  |  |  |  | 
CCCCC/C=C\C\C=C/C=C/C=C/[C@@H](SC[C@H](N)C(=O)O)[C@@H](O)CCCC(=O)O [LTE4, Leukotriene E4, reference compound] |  |  |  | failed to show any agonizing effect | failed to show any agonizing effect | did not prevent, and even moderately enhanced |  |  |  | 
Nc1ncnc2c1ncn2[C@@H]1O[C@H](COP(=O)(O)OP(=O)(O)OP(=O)(O)O)[C@@H](O)[C@H]1O [ATP, reference compound] |  |  |  |  |  |  | comparable speed of bead movement | comparable speed of bead movement | normal calcium release | normal calcium release
